According to patent publication US20250129021A1, “SMALL MOLECULE PROTEIN SYNTHESIS MODULATORS” (Interdict Bio, Inc., priority 2023, published 2025):

Columns and labels:
Type in all cases: biochemical
Conditions in all cases: HeLa S3 lysate, sfGFP/mCherry ratio, 2 hrs at 30° C.
KRAS G12D = experiment: In vitro transcription-translation (IVTT) assay, KRAS G12D reporter
Source text: (§1) All reporter constructs have been cloned into the pT7CFE1-CHis plasmid (ThermoFisher #88860) using Gibson assembly procedures (NEB #E2611L). The parental pT7CFE1-CHis plasmid contains an EMCV IRES at the 5′UTR for translation initiation, a multiple-cloning site (MCS) for gene insertion, an optional C-terminal His-epitope tag, and polyA sequence in the 3′UTR to regulate mRNA stability. All reporters are designed to be inserted at the MCS to include a red fluorescent protein (mCherry), P2A self-cleaving peptide which releases the preceding mCherry protein product, and a fusion open reading frame containing a 3×FLAG epitope, a peptide sequence of interest (TEST), and green fluorescent protein (sfGFP).
(§2) Construct Plasmid Preparation: All plasmids are isolated from MACH1 cells (ThermoFisher) grown overnight in ampicillin-containing luria broth, and purified using ZymoPure Express Plasmid Midiprep Kit (Zymo Research). Constructs are sequenced verified and diluted to a working concentration of 110 ng/μL.
(§3) HeLa S3 Lysate Preparation: HeLa S3 cell pellets are acquired from Ipracell/Ipratech (Belgium) and shipped as 4 mL frozen cell pellets on dry ice for storage at −80° C. until use. The procedure for lysate preparation is as follows. Prepare 1× Lysis Buffer, cold and stored on ice:
(§4) Each preparation takes 8 cell pellets (4 ml packed volume each, approximately 1.0×10^9 cells per pellet). Thaw cell pellets from −80° C. on ice for 90 mins. Lay pellets horizontally on top of the ice and rotate every 30 mins to ensure even thawing. Once thawed, add 4 mL of cold lysis buffer to each pellet, and using a serological pipet, gently pipet up and down to break up clumps. Incubate resuspended cells in ice for an additional 30 mins (plunged into ice). During 30 min incubation, rinse and RNase-zap (Ambion) glass dounces (use loose pestle “A”), gently dry and place on ice until needed. Prepare RNase-free Eppendorf tubes for spinning and for batch storage. Add batch labels to 1.5-1.7 mL RNase-free microcentrifuge tubes (labeling scheme below). Each batch will have an extra 1.5-1.7 mL RNase-free microcentrifuge tube for 40 μL of lysate, label the top of this tube (labeling scheme below). After 30 min incubation, transfer all 8 mL of cell pellet to dounce. Cell lysis is complete after douncing 100 times. Aliquot cell lysis into 1.5-1.7 mL temporary-microcentrifuge tubes. Place tubes in centrifuge with “fins” out, and spin at 1,200×g for 5 mins. After the first spin use a 1 mL pipet to resuspend each tube and repeat spin. This acts as an additional lysis step, is more vigorous and increases lysate yield. During second spin get liquid N2 and a fresh conical tube on ice. After spin is complete, transfer supernatant (lysate) from microcentrifuge tubes into the 50 mL conical tube and keep on ice. Repeat steps 10-14 for all other cell pellets until completed. Once all cell lysate has been transferred to the 50 mL conical tube pipet to mix so the solution is homogenous. Transfer 1 mL of lysate into batch-labeled microcentrifuge tubes and flash freeze in liquid nitrogen. Be sure to pipet up and down to mix throughout transfer step. Place all tubes in the […] for long-term storage.
(§5) In vitro transcription-translation assay setup: Each assay includes a master mix containing lysate and shared components, a 96-well plate containing compound titrations for testing, a 96-well DNA plate with reporter constructs to be tested, 96-well skirted PCR plates, and 96-well flat-bottom, black, fluorescent assay plates. […]

MYC = experiment: In vitro transcription-translation (IVTT) assay, MYC reporter
Method in brief: (§6)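 Reporter: mCherry, P2A, then 3×FLAG-target peptide-sfGFP fusion, IRES-initiated; HeLa S3 lysate IVTT; cpd dilutions 30 μM−0.1 μM half-log in 100% DMSO (dilution-plate conc); DNA added last; 2 h, 30° C; PBS quench.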

MCL-1 = experiment: In vitro transcription-translation (IVTT) assay, MCL-1 reporter
Method in brief: as §6

ALK = experiment: In vitro transcription-translation (IVTT) assay, ALK reporter
Source text: as §1, §2, §3, §4, §5

CCND1 = experiment: In vitro transcription-translation (IVTT) assay, CCND1 reporter
Method in brief: as §6

| SMILES | IC50 (MYC) | IC50 (MCL-1) | IC50 (ALK) | IC50 (CCND1) | IC50 (KRAS G12D) |
| --- | --- | --- | --- | --- | --- |
| COc1ccc(C[C@H]2NC[C@H](O)[C@H]2OC(=O)Nc2nnc(CN(Cc3ccccc3)Cc3ccccc3)s2)cc1 [V187551, (2R,3S,4S)-4-hydroxy-2-[(4-methoxyphenyl)methyl]pyrrolidin-3-yl N-{5-[(dibenzylamino)methyl]-1,3,4-thiadiazol-2-yl}carbamate] | > 30 µM |  |  |  | > 30 µM |
| COc1ccc(C[C@H]2NC[C@H](O)[C@H]2OC(=O)NCCNCCn2ccnc2)cc1 [V187637, (2R,3S,4S)-4-hydroxy-2-[(4-methoxyphenyl)methyl]pyrrolidin-3-yl N-(2-{[2-(imidazol-1-yl)ethyl]amino}ethyl)carbamate] | 10 to 20 µM |  |  |  | 20 to 30 µM |
| COc1ccc(C[C@H]2NC[C@H](O)[C@H]2OC(=O)NCCNc2c(NCc3ccccc3)c(=O)c2=O)cc1 [V187519, (2R,3S,4S)-4-hydroxy-2-[(4-methoxyphenyl)methyl]pyrrolidin-3-yl N-(2-{[2-(benzylamino)-3,4-dioxocyclobut-1-en-1-yl]amino}ethyl)carbamate; trifluoroacetic acid] |  |  |  |  | > 30 µM |
| COc1ccc(C[C@H]2NC[C@H](O)[C@H]2OC(=O)NCCN2CC(O)(CN)C2)cc1 [V187581, (2R,3S,4S)-4-hydroxy-2-[(4-methoxyphenyl)methyl]pyrrolidin-3-yl N-{2-[3-(aminomethyl)-3-hydroxyazetidin-1-yl]ethyl}carbamate; trifluoroacetic acid] | 20 to 30 µM |  |  |  | > 30 µM |
| COc1ccc(C[C@H]2NC[C@H](O)[C@H]2OC(=O)NCCOCCN2CCNCC2)cc1 [V187626, (2R,3S,4S)-4-hydroxy-2-[(4-methoxyphenyl)methyl]pyrrolidin-3-yl N-{2-[2-(piperazin-1-yl)ethoxy]ethyl}carbamate; trifluoroacetic acid] | > 30 µM |  | 20 to 30 µM |  |  |
| COc1ccc(C[C@H]2NC[C@H](O)[C@H]2OC(=O)NCCN2C[C@@H](NC(C)=O)[C@H](NC(C)=O)C2)cc1 [V187588, (2R,3S,4S)-4-hydroxy-2-[(4-methoxyphenyl)methyl]pyrrolidin-3-yl N-{2-[(3R,4R)-3,4-diacetamidopyrrolidin-1-yl]ethyl}carbamate; trifluoroacetic acid] | > 30 µM |  | > 30 µM |  |  |

Second part, led by results:

| IC50 (MYC) | IC50 (MCL-1) | IC50 (ALK) | IC50 (CCND1) | SMILES | IC50 (KRAS G12D) |
| --- | --- | --- | --- | --- | --- |
| < 10 µM | < 10 µM | < 10 µM | < 10 µM | COc1ccc(C[C@H]2NC[C@H](O)[C@H]2OC(=O)NCCCO)cc1 [V187585, (2R,3S,4S)-4-hydroxy-2-[(4-methoxyphenyl)methyl]pyrrolidin-3-yl N-(3-hydroxypropyl)carbamate] |  |
| 10 to 20 µM |  | 20 to 30 µM |  | COc1ccc(C[C@H]2NC[C@H](O)[C@H]2OC(=O)NCCN2CC(O)C2)cc1 [V187579, (2R,3S,4S)-4-hydroxy-2-[(4-methoxyphenyl)methyl]pyrrolidin-3-yl N-[2-(3-hydroxyazetidin-1-yl)ethyl]carbamate; trifluoroacetic acid] |  |
| < 10 µM |  | < 10 µM | < 10 µM | COc1ccc(C[C@H]2NC[C@H](O)[C@H]2OC(=O)Nc2ncc[nH]2)cc1 [V187755, (2R,3S,4S)-4-hydroxy-2-[(4-methoxyphenyl)methyl]pyrrolidin-3-yl N-(1H-imidazol-2-yl)carbamate] |  |
| 20 to 30 µM |  | < 10 µM |  | COc1ccc(C[C@H]2NC[C@H](O)[C@H]2OC(=O)NCCN)cc1 [V187575, (2R,3S,4S)-4-hydroxy-2-[(4-methoxyphenyl)methyl]pyrrolidin-3-yl N-(2-aminoethyl)carbamate; trifluoroacetic acid] |  |
| 10 to 20 µM |  | < 10 µM |  | COc1ccc(C[C@H]2NC[C@H](O)[C@H]2OC(=O)NCc2nn[nH]n2)cc1 [V187534, (2R,3S,4S)-4-hydroxy-2-[(4-methoxyphenyl)methyl]pyrrolidin-3-yl N-(2H-1,2,3,4-tetrazol-5-ylmethyl) carbamate; trifluoroacetic acid] |  |
